Data on one substance can be found in patent US11226337B2, “Chemoproteomic profiling of protein electrophilic and oxidative post-translational modifications” (Zenagem, LLC, priority 2017, dated 2022).

The target of assay [1] is T1, AMD1 (Homo sapiens, UniProt P17707).
T1 construct: Full-length genes encoding three probe 1- and one probe 2-targeted proteins were amplified from a cDNA library; expressed in transfected cells; host or cells: HEK293T
T1 sequence (P17707 68-334 limits assumed): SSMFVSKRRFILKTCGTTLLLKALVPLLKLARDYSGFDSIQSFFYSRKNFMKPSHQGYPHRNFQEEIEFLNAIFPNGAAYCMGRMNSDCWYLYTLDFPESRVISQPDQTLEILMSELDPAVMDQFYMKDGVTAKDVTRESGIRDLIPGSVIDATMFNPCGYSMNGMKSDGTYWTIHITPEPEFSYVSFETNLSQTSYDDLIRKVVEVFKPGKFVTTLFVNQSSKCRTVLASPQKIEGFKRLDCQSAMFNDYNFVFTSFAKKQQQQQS
T1 sequence (P17707 1-67 limits assumed): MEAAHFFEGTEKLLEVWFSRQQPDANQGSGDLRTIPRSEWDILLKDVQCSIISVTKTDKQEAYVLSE
To be noted: literature statement; cited from earlier work.

In assay [2] the target is T1, AMD1. In words: expression and probe 1 labelling of endogenous AMD1 after DFMO. Particulars: HEK293T, DFMO 5 mM 48 h, 10 μM L-methionine. Type of assay: cell-based. Here is the method:
To enhance expression and labelling of endogenous AMD1, HEK293T cells were treated with difluoromethylornithine (DFMO; purchased from Santa Cruz Biotechnology) (5 mM) for 48 h in RPMI 1640 media (Fisher Scientific, A14517-01) containing 10 μM L-methionine. Cells were washed and treated with probe 1 in the absence of methionine. […] Probe 1-labelling, proteome preparation, fluorophore conjugation, gel-based analysis and western blotting were performed as described above in Examples 2 and 3. Band intensities were quantified using ImageJ software^75. […] Briefly, about 0.5 mg soluble proteomes isolated from probe 1-labelled AMD1-transfected cells grown in low versus high methionine were each diluted to 1 mL with 50 mM Na-HEPES buffer (pH 7.5) supplemented with 500 mM NaCl and 1% Triton X-100. Each proteome was incubated overnight at 4° C. by rotation with a pre-equilibrated slurry (25 μL resin (CV), anti-FLAG M2 affinity gel, Sigma). The resin was washed by resuspension and centrifugation with the same buffer supplemented with 500 mM NaCl (5×1 mL) followed by 100 mM NaCl (2×1 mL). The bound AMD1 protein was eluted in 100 μL of low salt buffer containing […] (FLAG)3 peptide [DYKDHD-(G)-DYKDHD-(I)-DYKD4K] (SEQ ID NO: 47). To prevent contamination from the excess (FLAG)3 peptide in the elution, the protein was purified by gel. […]

On to difluoromethylornithine [DFMO], for which the “effect on expression of AMD1” value at AMD1 [1] is reported as “increase the expression of AMD1”. For the same substance, the “change in endogenous active AMD1 detected by probe 1” value on AMD1 [2] is recorded as “DMFO-induced changes in the endogenous concentration of active AMD1”.
